Here are results for 4 compounds from patent US20140094493A1, “Novel Ether Linked Compounds and Improved Treatments for Cardiac and Cardiovascular Disease” (priority 2011, published 2014).

Where only a bound is given, the exact number is not on record here.

Data set [1] concerns the target T1, human beta1-adrenoceptor (Homo sapiens, UniProt P08588).
T1 construct: expressed in transfected cells; host or cells: CHO cells
Put plainly: 3H-CGP12177 whole-cell binding, beta1. As to conditions: for Kd: 3H-CGP 12177 whole cell binding, CHO cells expressing human beta1-adrenoceptor, logarithmic value, read-out: Beta 1 Log KD (converted); for Beta 1-Beta 2 Log KD (selectivity): difference of Log KD beta1 and beta2, 1 = 10-fold, 2 = 100-fold, 3 = 1000-fold selectivity. The protocol:
(§1) Selectivity of ligands for the three beta-adrenoceptors was assessed by whole-cell binding studies using ^3H-CGP12177 in CHO cells expressing the human beta1, beta2 or beta3-adrenoceptors respectively essentially as described by Baker (2005; Br. J Pharmacol: 144, 317-22) Values shown are KD values determined as described by Baker (2005). KD represents the concentration of compound required to occupy 50% of the receptors in cells or tissues.
(§2) The selectivity of a ligand is given by the ratio of beta-1 to beta-2 KD. Accordingly a difference of one in the logarithmic values thereof represents a 10-fold selectivity, a difference of 2 represents 100-fold selectivity and a difference of 3 represents 1000-fold selectivity etc.

For data set [2], the target named is T2, human beta2-adrenoceptor (Homo sapiens, UniProt P07550).
T2 construct: expressed in transfected cells; host or cells: CHO cells
Put plainly: 3H-CGP12177 whole-cell binding, beta2. To be noted: 3H-CGP 12177 whole cell binding, CHO cells expressing human beta2-adrenoceptor; logarithmic value; read-out: Beta 2 Log KD (converted). As to the method:
as §1, §2

Data set [3] concerns the target β1-adrenoceptor (Homo sapiens, UniProt P08588). To be noted: background statement on known compounds; cited from earlier work.

T1 sequence (P08588 whole entry): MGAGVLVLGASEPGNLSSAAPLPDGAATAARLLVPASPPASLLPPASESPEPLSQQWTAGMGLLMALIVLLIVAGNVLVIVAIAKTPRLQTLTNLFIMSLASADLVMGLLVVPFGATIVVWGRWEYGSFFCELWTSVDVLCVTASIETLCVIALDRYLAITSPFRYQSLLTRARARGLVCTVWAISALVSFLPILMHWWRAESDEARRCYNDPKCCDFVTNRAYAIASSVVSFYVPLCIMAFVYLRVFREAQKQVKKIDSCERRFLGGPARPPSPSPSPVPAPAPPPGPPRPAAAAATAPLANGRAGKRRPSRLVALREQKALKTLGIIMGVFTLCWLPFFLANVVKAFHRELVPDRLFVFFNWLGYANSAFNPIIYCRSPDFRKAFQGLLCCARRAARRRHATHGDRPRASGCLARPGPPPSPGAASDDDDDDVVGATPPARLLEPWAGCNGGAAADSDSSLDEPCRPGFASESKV
β1-adrenoceptor, sequence (P08588 whole entry, species assumed): as the sequence (P08588 whole entry) above
T2 sequence (P07550 whole entry): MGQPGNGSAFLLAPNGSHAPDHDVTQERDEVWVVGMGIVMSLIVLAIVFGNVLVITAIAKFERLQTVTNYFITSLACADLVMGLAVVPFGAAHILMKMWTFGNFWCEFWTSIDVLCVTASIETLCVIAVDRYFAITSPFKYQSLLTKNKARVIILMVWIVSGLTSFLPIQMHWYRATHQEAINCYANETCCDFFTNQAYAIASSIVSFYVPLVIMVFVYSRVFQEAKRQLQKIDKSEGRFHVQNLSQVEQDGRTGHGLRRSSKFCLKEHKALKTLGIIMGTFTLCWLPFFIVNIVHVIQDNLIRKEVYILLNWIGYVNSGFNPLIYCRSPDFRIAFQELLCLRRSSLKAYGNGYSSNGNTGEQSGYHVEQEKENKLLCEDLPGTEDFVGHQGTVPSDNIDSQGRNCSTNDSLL

As usually defined, the Kd is the free concentration of one partner at which half of the binding sites on the other are occupied at equilibrium, for simple one-to-one binding. In general, melting point refers to the temperature, or range, at which the solid turns liquid. For `O=C1NCc2cc(OCCNC[C@H](O)COc3ccc4c(c3)OC[C@@H](CN3CCC(F)(F)CC3)O4)ccc21` [Example 43, 5-(2-((S)-3-((R)-2-((4,4-difluoropiperidin-1-yl)methyl)-2,3-dihydrobenzo[b][1,4]-dioxin-6-yloxy)-2-hydroxypropylamino)ethoxy)isoindolin-1-one], the melting point was 134 to 135 °C. Also, in data set [1], the Kd was 4.27 nM and the “Beta 1-Beta 2 Log KD (selectivity)” value worked out at 2.81. Besides, in data set [2], the Kd is 2750 nM.
Taken in the same sequence, the figures for `CC1(C)COc2cc(OC[C@@H](O)CNCCOc3ccc(C(N)=O)cc3)ccc2O1` [Example 44, (S)-4-(2-(3-(2,2-dimethyl-2,3-dihydrobenzo[b][1,4]dioxin-6-yloxy)-2-hydroxypropyl-amino)ethoxy)benzamide] were 101 to 103 °C, 316 nM, under 2.50 and over 100000 nM.
Take `CCOCCOc1ccc(OC[C@@H](O)CNCCc2ccc(OC)c(OC)c2)cc1` [Example D-140S]: the β1-selectivity in data set [3] is given as 4,400 fold.
With `N#Cc1cc(OCCOCC2CC2)ccc1OCC(O)CNCCNC(=O)Nc1ccc(O)cc1` (stereo not shown) [LK-204545], the β1-selectivity in data set [3] is given as 1,778 fold.
